The values that follow come from patent US8541579B2, “Substituted diketopiperazines as oxytocin antagonists” (Glaxo Group Limited, priority 2001, dated 2013).

The subject of the data set is rats. The data set is described as follows: Administration to rats p.o. for 4 days, toxicological effects. It is filed as in vivo. To be noted: doses of up to 300 mg/kg p.o for 4 days. The text has this:
The compounds of the invention are essentially non toxic at therapeutically active doses.

For `CC(C)C[C@@H]1C(=O)N[C@H](C2Cc3ccccc3C2)C(=O)N1[C@@H](C(=O)N(C)C)c1ccc(F)cc1F` [Example 10, (2R)-2-(2,4-difluorophenyl)-2-[(3R,6R)-3-(2,3-dihydro-1H-inden-2-yl)-6-isobutyl-2,5-dioxopiperazin-1-yl]-N,N-dimethylethanamide], the adverse toxicological effects entry is “no adverse toxicological effects were observed”.
